As a reminder, the stoichiometry N is a count of units in the complex or per binding partner.

B1: wild-type APP-TM peptide (peptide)
peptide: GAIIGLMVGGVVIATVIVITLVML-{Lys‑tag}
modifications: not fully specified (N-terminus); reading uncertain
notes: amyloid precursor protein (APP), human, residues 700 to 723, contain the TM segment; Two versions were synthesised: Lys-tag-W-(700-723)-Lys-tag (FRET donor) and Lys-tag-E(EDANS)-(700-723)-Lys-tag (FRET acceptor); also called wild-type APP transmembrane domain peptide; source: synthetic peptide (solid-phase synthesis, purified by reverse phase C4-HPLC); not shown: oligo-lysine tag (Lys-tag), …

Data set [1] deals with APP-TM dimer (self-association). Put plainly: SDS-PAGE oligomeric state. Format: binding, human. The note with it: 20 mM SDS; for Oligomeric state by SDS-PAGE: 40 mM Tris, 8 mM Acetate (pH 7.0), 5% glycerol, 0 – 25 μM peptide, boiled 5 minutes; for Oligomeric state by SDS-PAGE, concentration range: at different concentrations (0 – 25 μM peptide), pH 7.0. The method, then:
Samples contained 20 mM SDS, 40 mM Tris, 8 mM Acetate (pH 7.0), 5% glycerol, and 0 – 25 μM peptide. They were boiled for 5 minutes and subjected to SDS-PAGE using precast 4–12% Nupage gels (Invitrogen) and a standard running buffer. SeeBlue®Plus2 molecular weight markers from Invitrogen were used as standards.

The subject of data set [2] is HEK293 cells stably overexpressing Swedish-mutant APP751 and γ-secretase components. Put plainly: Sulforhodamine B (SRB) cytotoxicity assay. Format: cell-based. Particulars: SRB assay, 0, 10, 20, and 100 μM peptide, overnight. The protocol:
Stably transfected HEK293 cells overexpressing Swedish-mutant APP751 and γ-secretase components were plated at 15,000 cells/well in DMEM media containing 10% fetal bovine serum. The cells were grown for another 48 hours with the media changed twice at equivalent time intervals. Cells were then incubated overnight in fresh media containing 0, 10, 20, and 100 μM APP-TM peptides, and the SRB cytotoxicity assay was performed as previously described.
(In SRB staining, fixed cells bind dye roughly in proportion to their protein.)

The test system of data set [3] is wild-type APP-TM peptide. Put plainly: FRET hetero-oligomerization of wild-type and mutant APP-TM peptides. Format: binding, human. The note with it: Trp-labeled wild-type with EDANS-labeled V717G, constant 1:1 ratio, 20 mM SDS. The method, then:
(§1) Mixed peptide-SDS micelles were prepared by the addition of concentrated SDS to peptide solutions, such that the final concentrations were 20 mM SDS, 40 mM Tris, 8 mM Acetate (pH 7.0) and 0 – 90 μM peptide. The samples were sonicated and incubated overnight in the dark at room temperature before making fluorescence measurements.
(§2) Fluorescence measurements were made at room temperature using a PTI QM-1 fluorescence spectrophotometer. A quartz cuvette with a 2 mm excitation pathlength and a 1 cm emission pathlength was used. The excitation wavelength was 285 nm and the bandpass was 4 nm. We obtained a quantitative measure of the degree of peptide oligomerization by integrating the EDANS emission signal from 472–496 nm and dividing this value with the integrated Trp emission signal from 350–375 nm. This ratio of acceptor fluorescence to donor fluorescence is denoted either as Acceptor/Donor ratio or A/D ratio and can be used to compare peptide oligomerization at varying concentrations.

The subject of another data set is Aβ40 and Aβ42 production. As to the kind of experiment: Aβ ELISA immunoassay, HEK293 cells expressing Swedish mutant APP and γ-secretase components. Format: cell-based, human. The note with it: for Effect on levels of Aβ (Aβ40 and Aβ42): overnight incubation, 0, 20 or 100 μM peptide, conditioned media; for Effect on levels of Aβ (Aβ40 and Aβ42) / Effect on Aβ42/40 ratio: relative to control samples. The protocol: Stably transfected HEK293 cells overexpressing the Swedish double mutant (K670N/M671L) of APP751, presenilin 1, nicastrin, PEN-2 and APH-1 were grown to confluency in DMEM media containing 10% fetal bovine serum. The cells were grown for another 48 hours with the media changed twice at equivalent time intervals. Cells were then incubated overnight in fresh media containing 0, 20 or 100 μM APP-TM peptides. The media was collected and subjected to an immunoassay to determine the Aβ42 and Aβ40 concentrations. The ELISA BioSource immunoassay human β-amyloid 1–40/1–42 colorimetric kit (catalogue number KHB3482/KHB3481) was used and the standard protocol was followed. This sandwich ELISA technique makes use of an immobilized Aβ antibody that binds both Aβ40 and Aβ42 at an N-terminal epitope. The bound Aβ40 and Aβ42 are then detected using a C-terminal antibody specific for either Aβ40 or Aβ42. […] Therefore, this assay is ideally suited to detect any disturbances in the normal processing of endogeneuous full length APP in the presence of APP-TM peptides.
In general terms: An ELISA detects its analyte on a solid surface through an enzyme-linked reagent.

The subject of data set [4] is APP-TM oligomer (self-association). Put plainly: FRET of APP-TM peptides in DOPG phospholipid vesicles. Format: binding, human. The note with it: 1:20 peptide:DOPG, 50 mM Tris, 10 mM NaCl (pH 7.0), room temperature, excitation 285 nm. The method, then:
DOPG vesicles with incorporated peptides were prepared via sonication of dried lipid films in the presence of peptide solution at a molar ratio of 1 mole of peptide: 20 moles of DOPG as previously described. The samples contained 50 mM Tris, 10 mM NaCl (pH 7.0) as the buffer. […] Purified peptide-incorporated vesicle fractions were used for fluorescence measurements.
as §2

A short description of data set [5]: Solubility of APP-TM peptides. Format: physicochemical.
For data set [6], the target named is APP-TM dimer (self-association). Put plainly: FRET dimer dissociation, APP-TM peptides in SDS micelles. The note with it: for Kd: concentration dependence of FRET (Trp donor / EDANS acceptor, equimolar), 20 mM SDS, 40 mM Tris, 8 mM Acetate (pH 7.0), 0 – 90 μM peptide, overnight, room temperature, average error 3.6%, read-out: Apparent dimer dissociation constant. Format: binding, human. The protocol: as §1, §2
The apparent dissociation constants were determined using an equation derived from first principles of monomer-dimer equilibrium, where Kd = [A]^2/[A2]. The fluorescence acceptor-donor ratio was plotted against total peptide concentration and fit to the following equation:
[AT]=Kd(Fobs−Fmin/Fmax−Fmin)/2(1−Fobs−Fmin/Fmax−Fmin)^2
Where AT = total APP-TM peptide concentration, F = A/D ratio, fraction dimer = (Fobs-Fmin)/Fmax-Fmin), and % dimer = 100% (fraction dimer). The goodness-of-fit to the model were assessed using the chi-squared test, nonlinear least squares correlation, and examination of residuals.

The target in data set [7] is T714I APP-TM peptide (human). As to the kind of experiment: FRET or BRET; apparent; dimer to monomers; concentration dependence of the A/D ratio in equimolar mixtures of donor- and acceptor-labelled peptide, 20 mM SDS, 40 mM Tris, 8 mM acetate (pH 7.0), 0 – 90 μM peptide, room temperature.
Data set [8] deals with the molecule itself. The description is as above.
Data set [9] concerns the molecule itself. Put plainly: SDS-PAGE of the oligomeric state; 20 mM SDS, 40 mM Tris, 8 mM acetate (pH 7.0), 5% glycerol, 0 – 25 μM peptide, boiled 5 minutes, 4–12% Nupage gels.
The target of data set [10] is B1. Put plainly: FRET or BRET; mixed: Trp-labelled wild-type with equimolar Edans-labelled mutant peptide in 20 mM SDS; A/D ratio against total peptide concentration (V717G) and at 50 μM total peptide (all mutants); baseline A/D 0.24 for non-interacting peptides. Particulars: both partners purified. On the technique in general: In BRET a luciferase serves as donor, and the signal depends on an acceptor being close.

Data set [11] addresses V717F APP-TM peptide (human). As to the kind of experiment: FRET or BRET; apparent; dimer to monomers; concentration dependence of the A/D ratio in equimolar mixtures of donor- and acceptor-labelled peptide, 20 mM SDS, 40 mM Tris, 8 mM acetate (pH 7.0), 0 – 90 μM peptide, room temperature.
Setting [12] is: 0, 20 or 100 μM peptide, overnight.

Entries after “also recorded” stand apart in the source; their conditions may differ. Ends that are not written are not given here. Lys‑tag = not defined here

“Lys-tag(W/EEDANS)GAIIGLMVGGVVIATVIGITLVML Lys-tag [V717G, FAD mutant V717G APP-TM peptide with N- and C-terminal oligo-lysine tags]”: in data set [1], the “Oligomeric state by SDS-PAGE” value was “populated both monomer and dimer states”; the “Oligomeric state by SDS-PAGE, concentration range” value was “formed monomer-dimer mixtures across the same concentration range”. Also, the “Cell survival / viability” value in [2] is on record as “neither peptide caused a reduction in cell survival”. Also, the “Total peptide concentration at which A/D ratio shows signs of saturation (hetero-oligomerization)” value in the data set on wild-type APP-TM peptide [3] was “above 50 μM”. In the data set with Aβ40 and Aβ42 production (setting [12]), the “Concentration dependence of Aβ reduction” value was “strong concentration dependence”, the “Inhibitory effect on Aβ42 versus Aβ40 production” value is “greater inhibitory effect on Aβ42 production (Fig. 7B) than on Aβ40 production”, the “Suppression of Aβ production relative to wild-type peptide” value is given as “greater than that of the wild-type peptide; also recorded: significantly greater inhibition of Aβ production than the wild-type peptide” and the “Effect on Aβ42/40 ratio” value is listed as “reduction in the Aβ42/40 ratio relative to control samples”. The “Effect on levels of Aβ (Aβ40 and Aβ42)” value in the data set with Aβ40 and Aβ42 production was “drastic reduction in the levels of Aβ relative to control samples”.

Take “Lys-tag(W/EEDANS)GAIIGLMVGGVVIATVIVITLVML Lys-tag [wild-type, APP-TM peptide, residues 700 to 723 of human APP, with N- and C-terminal oligo-lysine tags; Trp or Glu-EDANS labeled]”: in [1], the “Oligomeric state by SDS-PAGE” value is given as “formed stable dimers” and the “Oligomeric state by SDS-PAGE, concentration range” value is on record as “predominantly dimeric under all concentrations tested”. Moreover, the “Cell survival / viability” value in data set [2] is “neither peptide caused a reduction in cell survival”. The “FRET signature (donor quenching, acceptor sensitization) in phospholipid bilayers” value in data set [4] was “Typical donor quenching and acceptor sensitization was observed”. In addition, in the data set on Aβ40 and Aβ42 production (setting [12]), the “Concentration dependence of Aβ reduction” value was “strong concentration dependence”, the “Inhibitory effect on Aβ42 versus Aβ40 production” value was “greater inhibitory effect on Aβ42 production (Fig. 7B) than on Aβ40 production” and the “Effect on Aβ42/40 ratio” value is given as “reduction in the Aβ42/40 ratio relative to control samples”. Also, the “Effect on levels of Aβ (Aβ40 and Aβ42)” value in the data set on Aβ40 and Aβ42 production was “drastic reduction in the levels of Aβ relative to control samples”.

Take “Lys-tag(W/EEDANS)GAIIGLMVGGVVIATVIFITLVML Lys-tag [V717F, FAD mutant V717F APP-TM peptide with N- and C-terminal oligo-lysine tags]”: the “Oligomeric state by SDS-PAGE” value in data set [1] is on record as “predominantly monomeric”. In data set [5], the Solubility result is reported as “only soluble in the presence of SDS”. Moreover, the Kd in [6] is 125 µM.

As to “Lys-tag(W/EEDANS)GAIIGLMVGGVVIAIVIGITLVML Lys-tag [T714I, FAD mutant T714I APP-TM peptide with N- and C-terminal oligo-lysine tags]”, the “Oligomeric state by SDS-PAGE” value in data set [1] is listed as “predominantly monomeric”. Further, the Solubility result in [5] is “only soluble in the presence of SDS”. In [6] (among wild-type and FAD mutants tested, SDS micelles), the Relative dimer stability entry is “least stable dimer”. In addition, the Kd in data set [6] worked out at 395 µM.

Consider T714I APP-TM peptide, for which the Kd in data set [7] worked out at 395 µM.

Take B1: the Kd in data set [8] worked out at 10.3 µM. For the same molecule, the “stoichiometry N” value in data set [9] turned out to be 2.

B2: V717G APP-TM peptide (peptide)
peptide: GAIIGLMVGGVVIATVIGITLVML-{Lys‑tag}
modifications: not fully specified (N-terminus); reading uncertain
notes: amyloid precursor protein (APP), human, residues 700 to 723 with the familial Alzheimer's disease mutation V717G; Two versions (Trp donor, Glu-EDANS acceptor) as for m1; source: synthetic peptide (solid-phase synthesis, purified by reverse phase C4-HPLC); not shown: oligo-lysine tag (Lys-tag), N-terminal, kept; Trp (donor version) or Glu-EDANS (acceptor version), N-terminal, kept; oligo-lysine …
With B2, in data set [8], the Kd stood at 20.4 µM. Also, in [9], the “stoichiometry N” value was determined as 2. In addition, the binding result with wild-type APP-TM peptide [10] is given as “binds”.

B3: V717F APP-TM peptide (peptide)
peptide: GAIIGLMVGGVVIATVIFITLVML-{Lys‑tag}
modifications: not fully specified (N-terminus); reading uncertain
notes: amyloid precursor protein (APP), human, residues 700 to 723 with the familial Alzheimer's disease mutation V717F; Two versions (Trp donor, Glu-EDANS acceptor) as for m1; Said to be soluble only in the presence of SDS; source: synthetic peptide (solid-phase synthesis, purified by reverse phase C4-HPLC); not shown: oligo-lysine tag (Lys-tag), N-terminal, kept; Trp (donor version) or Glu-EDANS …
For the molecule B3, the binding result with wild-type APP-TM peptide [10] is listed as “binds”. For the same molecule, the Kd in [11] came to 125 µM.

The record behind these values is publication PMC2266763, “Dimerization of the transmembrane domain of amyloid precursor proteins and familial Alzheimer's disease mutants” (BMC Neuroscience, 2008).
